From patent publication US10836792B2, “Retro-inverso peptide inhibitors of cell migration, extracellular matrix and endothelial invasion by tumor cells” (ISTITUTO NAZIONALE TUMORI IRCCS “FONDAZIONE G. PASCALE”, priority 2016, dated 2020)

Tests used:
HT1080 cells [1] = test: FBS-directed migration of HT1080 cells in Boyden chambers; assay type: cell-based, human; details: 10 nM peptide, 10% FBS, 4 hrs
Description: FIG. 4 Retro-inverso peptides inhibit FBS-directed migration of HT1080 cells in a dose dependent manner (Example 4).
To assess whether retro-inverso peptides exert some effect on directional cell migration, HT1080 cells were allowed to migrate for 4 hrs in Boyden chambers toward serum-free medium (CTRL), 10% FBS (None) or 10% FBS mixed with peptides, each tested at 10 nM concentration. For quantitative analysis, the basal values assessed in the absence of FBS (CTRL) was taken as 100% and all values were reported relative to that. Data are the means±SD of two independent experiments, performed in triplicate. Statistical significance calculated against None with *p<0.01, **p<0.001 (A). All retro-inverso peptides caused a reduction of FBS-directed cell migration although to different extent. Peptides RI-1, RI-2, RI-3, RI-4 and RI-5 reduced by 49%, 46%, 65%, 9% and 6%, respectively, the extent of FBS-directed cell migration. Similar results were obtained when, HT1080 cell migration was monitored in real time for 18 hrs at 37° C., 5% CO2 by the xCELLigence system. Data represent mean±SD from a quadruplicate experiment representative of 2 replicates (B). Then, HT1080 cells were allowed to migrate in Boyden chambers toward 10% FBS plus increasing concentrations of RI-3, and data were expressed as a percentage of cells migrated toward FBS alone (100%) Inhibitory effect of RI-3 is dose-dependent, it starts in the high fM range, it seems to level off in the nM range and reaches an overall 50% reduction at 1×10^−13M (C).

HT1080 cells [2] = test: FBS-directed matrigel invasion of HT1080 cells (xCELLigence RTCA); assay type: cell-based, human; details: 10 nM peptide, growth medium, 20 hrs
Description: FIG. 5 Peptides RI-1, RI-2, RI-3, RI-4 and RI-5 reduced by 33%, 35%, 81%, 52% and 11%, respectively, the extent of FBS-directed matrigel invasion of HT1080 cells (A), as assessed in real time using the xCELLigence RTCA technology. The inhibitory effect of RI-3 is dose-dependent (B) (Example 5).
Cell migration is a prerequisite for cancer invasion. Therefore, we investigated whether retro-inverso peptides prevent matrigel invasion of HT1080 cells using the xCELLigence RTCA technology. Cells were seeded on polymerized matrigel and lower chambers were filled with DMEM (CTRL), growth medium (None) or growth medium with 10 nM the indicated peptides (A), or with increasing concentrations of RI-3 (B). Matrigel invasion was monitored in real time for 20 (A) or 18 (B) hrs at 37° C., 5% CO2 and the impedance values were automatically monitored as changes in cell index. Data represent means±SD from quadruplicate experiments, each representative of 2 replicates. HT1080 cells were able to cross matrigel in the presence of 10% FBS. All retro-inverso peptides caused a reduction of FBS-directed cell migration although to different extent.

sarcoma cell = details: mouse model of lung colonization; cited from earlier work
[3] = tested on: human fibrosarcoma HT1080 cells; test: Migration of HT1080 cells toward the peptides as chemoattractant (xCELLigence RTCA); assay type: cell-based; details: 10 nM peptide as chemoattractant, 18 hrs, cell index
Description: Cell index due to the adhesion of migrating cells to microelectrodes are reported in (A); analysis of slopes representing the change rate of cell index generated in the time range 0-12 hr are reported in (B).
We assessed whether new generated retro-inverso peptides elicit themselves cell migration of human fibrosarcoma HT1080 cells. […] The results are depicted in FIG. 2. Data represent mean±SD from a quadruplicate experiment representative of 2 replicates (A).

Substance | reduction of the extent of FBS-directed cell migration (HT1080 cells [1]) | reduction of the extent of FBS-directed cell invasion (matrigel) (HT1080 cells [2]) | inhibition of sarcoma cell invasion (sarcoma cell) | cell migration triggered by the peptide [3]
Ac-(D)-Tyr-(D)-Arg-(D)-Ser-(D)-Arg-NH2 [RI-2] | 46% | 35% |  | 
Ac-L-Arg-Aib-L-Arg-D-Cα(Me)Phe-NH2 [UPARANT] |  |  | does not inhibit sarcoma cell invasion | 
Phenylacetyl-D-Arg-Aib-D-Arg-NH2 [RI-4] | 9% | 52% |  | 
3-phenylpropionyl-D-Arg-Aib-D-Arg-NH2 [RI-5] | 6% | 11% |  | 
Ac-(D)-Tyr-(D)-Arg-(D)-Glu-(D)-Arg-NH2 [RI-1] | 49% | 33% |  | 
N-formyl-methionyl-leucyl-phenylalanine peptide [fMLF] |  |  |  | elicited a considerable cell migration
